Laboratory results reported in publication PMC6906348 (Therapeutic Advances in Medical Oncology, 2019).

What was measured:
[1] = Plasma pharmacokinetics; format: in vivo, human
[2] = test system: MET-dependent tumor models; details: at well tolerated doses; cited from earlier work
[3] = test system: MET; details: cited from earlier work
[4] = test system: MET-amplified experimental HCC tumors; details: cited from earlier work
[5] = test system: patients with advanced solid tumors; details: cited from earlier work

## CNC(=O)c1ccc(-c2cnc3ncc(Cc4ccc5ncccc5c4)n3n2)cc1F [capmatinib]
[1]; 300 mg BID capsule, Cycle 1 Day 1, n = 8, plasma
  Tmax, Median: 2.0 h
[1]; human, plasma, oral, 300 mg, geomean AUC0−12 h, 300 mg BID capsules, cycle 1 day 1
  AUC(0-t): 7740 ng·h/mL
[1]; human, plasma, oral, 300 mg, geomean Cmax, 300 mg BID capsules, cycle 1 day 1
  Cmax: 2140 ng/mL
[1]; patients with HCC
  steady-state accumulation: minimal
[2]
  effect on MET-dependent tumor models: causes regression
[3]
  MET inhibition: highly potent and selective
[4]
  sensitivity of tumors to capmatinib: highly sensitive
[5]
  safety profile: tolerable safety profile
